Patent publication US20100256123A1, “P2X4 RECEPTOR ANTAGONIST” (NIPPON CHEMIPHAR CO., LTD., priority 2006, published 2010)

Biological target: T1, human P2X4 receptor (Homo sapiens, UniProt Q99571)
T1 sequence (Q99571 1-388): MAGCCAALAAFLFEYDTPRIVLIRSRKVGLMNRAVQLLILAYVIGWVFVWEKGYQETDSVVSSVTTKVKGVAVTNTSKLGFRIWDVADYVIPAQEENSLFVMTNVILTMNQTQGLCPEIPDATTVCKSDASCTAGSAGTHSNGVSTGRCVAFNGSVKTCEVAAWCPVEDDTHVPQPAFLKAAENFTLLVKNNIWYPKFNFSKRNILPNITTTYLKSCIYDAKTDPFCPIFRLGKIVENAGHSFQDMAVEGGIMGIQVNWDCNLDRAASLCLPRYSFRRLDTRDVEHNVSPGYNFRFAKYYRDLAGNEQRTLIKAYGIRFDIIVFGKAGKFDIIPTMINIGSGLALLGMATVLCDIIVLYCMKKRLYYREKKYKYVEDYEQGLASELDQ
Experiment: P2X4 receptor antagonism: ATP-induced calcium change (Fura2-AM) in 1321N1 cells stably expressing human P2X4 receptor
Type: cell-based
Settings: ATP (10 μm)-induced maximal calcium change = 100% control, compound applied 10 minutes before ATP; for Inhibition ratio % (at 10^−5 M): Pharmacological Experimental 2
Experimental: The P2X4 receptor antagonisms of the compounds according to the invention were determined in the following manner.
(§1) 1321N1 cells were transfected human P2X4 receptor-encoding expression vector using a EUGENE 6 transfection reagent (Roche). After cultivation of one week, it was confirmed that P2X4 receptor was stably expressed. Cells were loaded with Fura2-AM calcium fluorescent dye (SIGMA) and the fluorescence changes were monitored using Aqua-Cosmos (Hamamatsu Photonics). ATP (10 μm)-induced maximal […] calcium change was defined as 100% of control response to calculate the inhibition percentage of test compounds at each concentration. Test compounds were treated onto cells 10 minutes before ATP stimulation.
as §1, with “FuGENE” for “EUGENE”
The experimental procedures of Example 10 were repeated.

SMILES	inhibition ratio (at 10^−5M, Pharmacological Experimental 1) [%]	Inhibition ratio % (at 10^−5 M) [%]
O=C1CN=C(c2cccc(O)c2)c2ccc3ccccc3c2N1 [Example 2, 5-(3-Hydroxyphenyl)-1,3-dihydro-2H-naptho-[1,2-e]-1,4-diazepin-2-one]	69	
O=C1CN=C(c2ccc(O)c(O)c2)c2ccc3ccccc3c2N1 [Example 9, 5-(3,4-Dihydroxyphenyl)-1,3-dihydro-2H-naptho[1,2-e]-1,4-diazepin-2-one]		63
O=C1CN=C(c2ccc(O)cc2)c2ccc3ccccc3c2N1 [Example 4, 5-(4-Hydroxyphenyl)-1,3-dihydro-2H-naptho-[1,2-e]-1,4-diazepin-2-one]		53
